Source: ChEMBL document CHEMBL2413072, “Synthesis and in vitro anticancer studies of novel C-2 arylidene congeners of lantadenes” (2013)

Experiments:
Format in all cases: functional
[1] = system: RXF 393; experiment: Growth inhibition of human RXF393 cells by sulforhodamine B assay
[2] = system: NCI-H23; experiment: Growth inhibition of human NCI-H23 cells by sulforhodamine B assay
[3] = system: NCI-H226; experiment: Growth inhibition of human NCI-H226 cells assessed as cell growth at 10^-7 M by sulforhodamine B assay; settings: read-out: Activity
[4] = system: OVCAR-3; experiment: Growth inhibition of human OVCAR3 cells by sulforhodamine B assay
[5] = Growth inhibition of human Hs 578T cells assessed as cell growth at 10^-4 M by sulforhodamine B assay; settings: read-out: Activity
[6] = system: 786-0; experiment: Growth inhibition of human 786-0 cells assessed as cell growth at 10^-7 M by sulforhodamine B assay; settings: read-out: Activity
[7] = system: U-251; experiment: Growth inhibition of human U251 cells assessed as cell growth at 10^-6 M by sulforhodamine B assay; settings: read-out: Activity
[8] = system: SNB-19; experiment: Growth inhibition of human SNB19 cells by sulforhodamine B assay
[9] = system: COLO 205; experiment: Growth inhibition of human COLO205 cells assessed as cell growth at 10^-6 M by sulforhodamine B assay; settings: read-out: Activity
[10] = system: OVCAR-8; experiment: Growth inhibition of human OVCAR8 cells assessed as cell growth at 10^-6 M by sulforhodamine B assay; settings: read-out: Activity
[11] = Growth inhibition of human Hs 578T cells assessed as cell growth at 10^-8 M by sulforhodamine B assay; settings: read-out: Activity
[12] = system: TK-10; experiment: Growth inhibition of human TK10 cells assessed as cell growth at 10^-6 M by sulforhodamine B assay; settings: read-out: Activity
[13] = system: OVCAR-5; experiment: Growth inhibition of human OVCAR5 cells assessed as cell growth at 10^-7 M by sulforhodamine B assay; settings: read-out: Activity
[14] = system: UACC-62; experiment: Growth inhibition of human UACC62 cells assessed as cell growth at 10^-4 M by sulforhodamine B assay; settings: read-out: Activity
[15] = system: T47D; experiment: Growth inhibition of human T47D cells assessed as cell growth at 10^-4 M by sulforhodamine B assay; settings: read-out: Activity
[16] = system: BT-549; experiment: Growth inhibition of human BT549 cells by sulforhodamine B assay
[17] = system: SNB-75; experiment: Growth inhibition of human SNB75 cells assessed as cell growth at 10^-8 M by sulforhodamine B assay; settings: read-out: Activity
[18] = system: M14; experiment: Growth inhibition of human M14 cells assessed as cell growth at 10^-6 M by sulforhodamine B assay; settings: read-out: Activity
[19] = system: HOP-62; experiment: Growth inhibition of human HOP62 cells by sulforhodamine B assay
[20] = system: NCI-H226; experiment: Growth inhibition of human NCI-H226 cells assessed as cell growth at 10^-6 M by sulforhodamine B assay; settings: read-out: Activity
[21] = system: NCI-H522; experiment: Growth inhibition of human NCI-H522 cells by sulforhodamine B assay
[22] = system: UACC-62; experiment: Growth inhibition of human UACC62 cells assessed as cell growth at 10^-8 M by sulforhodamine B assay; settings: read-out: Activity
[23] = system: SNB-75; experiment: Growth inhibition of human SNB75 cells assessed as cell growth at 10^-6 M by sulforhodamine B assay; settings: read-out: Activity
[24] = system: RXF 393; experiment: Growth inhibition of human RXF393 cells assessed as cell growth at 10^-8 M by sulforhodamine B assay; settings: read-out: Activity
[25] = system: SK-MEL-2; experiment: Growth inhibition of human SK-MEL-2 cells assessed as cell growth at 10^-6 M by sulforhodamine B assay; settings: read-out: Activity
[26] = system: MDA-MB-435; experiment: Growth inhibition of human MDA-MB-435 cells assessed as cell growth at 10^-8 M by sulforhodamine B assay; settings: read-out: Activity
[27] = system: HCT-15; experiment: Growth inhibition of human HCT15 cells assessed as cell growth at 10^-4 M by sulforhodamine B assay; settings: read-out: Activity
[28] = system: OVCAR-8; experiment: Growth inhibition of human OVCAR8 cells assessed as cell growth at 10^-8 M by sulforhodamine B assay; settings: read-out: Activity
[29] = system: SF-539; experiment: Growth inhibition of human SF539 cells assessed as cell growth at 10^-4 M by sulforhodamine B assay; settings: read-out: Activity
[30] = system: CAKI-1; experiment: Growth inhibition of human CAKI-1 cells assessed as cell growth at 10^-7 M by sulforhodamine B assay; settings: read-out: Activity
[31] = system: MDA-MB-435; experiment: Growth inhibition of human MDA-MB-435 cells by sulforhodamine B assay
[32] = system: PC-3; experiment: Growth inhibition of human PC3 cells by sulforhodamine B assay
[33] = Growth inhibition of human HCC2998 cells by sulforhodamine B assay
[34] = system: PC-3; experiment: Growth inhibition of human PC3 cells assessed as cell growth at 10^-7 M by sulforhodamine B assay; settings: read-out: Activity
[35] = system: SR; experiment: Growth inhibition of human SR cells assessed as cell growth at 10^-7 M by sulforhodamine B assay; settings: read-out: Activity
[36] = system: A498; experiment: Growth inhibition of human A498 cells by sulforhodamine B assay
[37] = system: U-251; experiment: Growth inhibition of human U251 cells by sulforhodamine B assay
[38] = read-out: LC50 (the source's name)
[39] = read-out: pLC50 (the source's name) (converted)

`C/C=C(/C)C(=O)O[C@@H]1CC(C)(C)C[C@H]2C3=CC[C@@H]4[C@@]5(C)CCC(=O)C(C)(C)[C@@H]5CC[C@@]4(C)[C@]3(C)CC[C@@]12C(=O)O` [LANTADENE A] showed a GI50 ([1]; read-out: GI50) of 2.41 µM, a CC50 [1, 38] of over 100 µM and a TGI ([1]; read-out: TGI) of 9.93 µM. For the same compound, the GI50 ([1]; read-out: pGI50 (converted)) was 2.4 µM, the CC50 [1, 39] was over 100 µM and the TGI ([1]; read-out: pTGI (converted)) was 10 µM. For the same compound, the GI50 ([2]; read-out: GI50) was 4.55 µM, the CC50 [2, 38] was over 100 µM and the TGI ([2]; read-out: TGI) was over 100 µM. The GI50 ([2]; read-out: pGI50 (converted)) was 4.57 µM, the CC50 [2, 39] was over 100 µM and the TGI ([2]; read-out: pTGI (converted)) was over 100 µM. It also gave a growth at 0.1 µM [3] of 81%, a GI50 ([4]; read-out: GI50) of 5.89 µM and a CC50 [4, 38] of over 100 µM. It also gave a TGI ([4]; read-out: TGI) of over 100 µM, a GI50 ([4]; read-out: pGI50 (converted)) of 5.89 µM and a CC50 [4, 39] of over 100 µM. For the same compound, the TGI ([4]; read-out: pTGI (converted)) was over 100 µM, the growth at 100 µM [5] was 21% and the growth at 0.1 µM [6] was 94%. It also gave a growth at 1 µM [7] of 90%, a GI50 ([8]; read-out: GI50) of 4.67 µM and a CC50 [8, 38] of over 100 µM. It also gave a TGI ([8]; read-out: TGI) of over 100 µM, a GI50 ([8]; read-out: pGI50 (converted)) of 4.68 µM and a CC50 [8, 39] of over 100 µM. The TGI ([8]; read-out: pTGI (converted)) was over 100 µM, the growth at 1 µM [9] was 101% and the growth at 1 µM [10] was 95%. It also gave a growth at 0.01 µM [11] of 97%, a growth at 1 µM [12] of 101% and a growth at 0.1 µM [13] of 100%. It also gave a growth at 100 µM [14] of -70%, a growth at 100 µM [15] of 23% and a GI50 ([16]; read-out: GI50) of 4.73 µM. It also gave a CC50 [16, 38] of over 100 µM, a TGI ([16]; read-out: TGI) of over 100 µM and a GI50 ([16]; read-out: pGI50 (converted)) of 4.68 µM. For the same compound, the CC50 [16, 39] was over 100 µM, the TGI ([16]; read-out: pTGI (converted)) was over 100 µM and the growth at 0.01 µM [17] was 86%. The growth at 1 µM [18] was 80%, the GI50 ([19]; read-out: GI50) was 20.6 µM and the LC50 (concentration killing 50% of cells) ([19]; read-out: LC50) was over 100 µM. For the same compound, the TGI ([19]; read-out: TGI) was over 100 µM, the GI50 ([19]; read-out: pGI50 (converted)) was 20.4 µM and the LC50 (concentration killing 50% of cells) ([19]; read-out: pLC50 (converted)) was over 100 µM. For the same compound, the TGI ([19]; read-out: pTGI (converted)) was over 100 µM, the growth at 1 µM [20] was 87% and the GI50 ([21]; read-out: GI50) was 3.25 µM. For the same compound, the CC50 [21, 38] was over 100 µM, the TGI ([21]; read-out: TGI) was 44.1 µM and the GI50 ([21]; read-out: pGI50 (converted)) was 3.24 µM. For the same compound, the CC50 [21, 39] was over 100 µM, the TGI ([21]; read-out: pTGI (converted)) was 43.7 µM and the growth at 0.01 µM [22] was 97%. The growth at 1 µM [23] was 88%, the growth at 0.01 µM [24] was 95% and the growth at 1 µM [25] was 108%. It also gave a growth at 0.01 µM [26] of 96%, a growth at 100 µM [27] of 9% and a growth at 0.01 µM [28] of 97%. It also gave a growth at 100 µM [29] of 17%, a growth at 0.1 µM [30] of 94% and a GI50 ([31]; read-out: GI50) of 5.24 µM. For the same compound, the CC50 [31, 38] was over 100 µM, the TGI ([31]; read-out: TGI) was over 100 µM and the GI50 ([31]; read-out: pGI50 (converted)) was 5.25 µM. The CC50 [31, 39] was over 100 µM, the TGI ([31]; read-out: pTGI (converted)) was over 100 µM and the GI50 ([32]; read-out: GI50) was 2.53 µM. It also gave a CC50 [32, 38] of over 100 µM, a TGI ([32]; read-out: TGI) of over 100 µM and a GI50 ([32]; read-out: pGI50 (converted)) of 2.51 µM. The CC50 [32, 39] was over 100 µM, the TGI ([32]; read-out: pTGI (converted)) was over 100 µM and the GI50 ([33]; HCC 2998, read-out: GI50) was 3.33 µM. The CC50 ([33]; HCC 2998, read-out: LC50 (the source's name)) was over 100 µM, the TGI ([33]; HCC 2998, read-out: TGI) was over 100 µM and the GI50 ([33]; HCC 2998, read-out: pGI50 (converted)) was 3.31 µM. It also gave a CC50 ([33]; HCC 2998, read-out: pLC50 (the source's name) (converted)) of over 100 µM, a TGI ([33]; HCC 2998, read-out: pTGI (converted)) of over 100 µM and a growth at 0.1 µM [34] of 83%. For the same compound, the growth at 0.1 µM [35] was 79%, the GI50 ([36]; read-out: GI50) was 2.06 µM and the CC50 [36, 38] was over 100 µM. For the same compound, the TGI ([36]; read-out: TGI) was 11.6 µM, the GI50 ([36]; read-out: pGI50 (converted)) was 2.04 µM and the CC50 [36, 39] was over 100 µM. The TGI ([36]; read-out: pTGI (converted)) was 11.7 µM, the GI50 ([37]; read-out: GI50) was 3.99 µM and the CC50 [37, 38] was over 100 µM. It also gave a TGI ([37]; read-out: TGI) of over 100 µM, a GI50 ([37]; read-out: pGI50 (converted)) of 3.98 µM and a CC50 [37, 39] of over 100 µM. The TGI ([37]; read-out: pTGI (converted)) was over 100 µM.
